We go through 77 sequences from the supplement of paper PMC11208160.
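Further: IS621 recombinase and bridge RNA in Escherichia coli cells.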

The series in a line: recombinant barcode read abundance after kanamycin selection (control-corrected) (log10(CPM+1)); higher = more efficient recombination; sequences stand for … in AGTGCAGAGAAAATCGGCCAGTTTTCTCTGCCTGCAGTCCGCATGCCGT…AGATTTATGCAGCGGACTGCCTTTCTCCCAAAGTGATAAACCGGACAGTATCATGGACCGGTTTTCCCGGTAATCCGTATTTGCAAGGTTGGTTTCACT; site = the 11-nt target. An outline of the steps:
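Duplicate cultures were plated either on chloramphenicol/ampicillin LB agar, serving as control, or on chloramphenicol/ampicillin/kanamycin with 0.1 mM IPTG. These came from a pooled E. coli library co-electroporated with a donor plasmid, each member pairing a target with an IS621 bridge RNA target-binding loop. Recombination efficiency equals averaged, control-corrected counts per million of recombinant-junction barcodes. It is listed as log10(CPM+1).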
On to “CGATTAGCTTGGGTTCTAACCTGTTGCCT (site CGATTATCTAG)”, for which the “recombinant barcode read abundance (log10)” value came out at 0.186. With “CGCACGTCTTGGGTTCTAACCTGTTGCTT (site CACAAGTCTAA)” the figure was 0.185; with “CGCACGTCTTGGGTTCTAACCTGTTGCTT (site CGCACGTCTAA)”, 0.0911; with “CGCCACACTTGGGTTCTAACCTGTTGCCT (site CGACACACTAG)”, 0.426. With “CGCCACACTTGGGTTCTAACCTGTTGCCT (site CGCCACACTAG)” the figure was 0.296; with “CGCCACACTTGGGTTCTAACCTGTTGCCT (site CGGCACACTAG)”, 0.689.

In the case of “CGCCACACTTGGGTTCTAACCTGTTGCCT (site CGTCACACTAG)”, the “recombinant barcode read abundance (log10)” value came out at 1.22. With “CGCCGAACTTGGGTTCTAACCTGTTGCCT (site AGCCGAACTAG)” the figure was 0.0619; with “CGCCGAACTTGGGTTCTAACCTGTTGCCT (site CGCCGAACTAG)”, 0.0225.

Take “CGCCGAACTTGGGTTCTAACCTGTTGCCT (site GGCCGAACTAG)”: the “recombinant barcode read abundance (log10)” value was 0.339. With “CGCCGAACTTGGGTTCTAACCTGTTGCCT (site TGCCGAACTAG)” the figure was 0.0386. With “CGCCTGCCTTGGGTTCTAACCTGTTGCCT (site CGCCAGCCTAG)” the figure was 0.119; with “CGCCTGCCTTGGGTTCTAACCTGTTGCCT (site CGCCTGCCTAG)”, 0.113; with “CGCCTTCCTTGGGTTCTAACCTGTTGCAT (site CGCCATCCTAT)”, 0.121. Take “CGCCTTCCTTGGGTTCTAACCTGTTGCAT (site CGCCCTCCTAT)”: the “recombinant barcode read abundance (log10)” value is 0.157.

Consider “CGCCTTCCTTGGGTTCTAACCTGTTGCAT (site CGCCGTCCTAT)”, for which the “recombinant barcode read abundance (log10)” value stood at 0.0857. With “CGCCTTCCTTGGGTTCTAACCTGTTGCAT (site CGCCTTCCTAT)” the figure was 0.0767. With “CGCGCAGCTTGGGTTCTAACCTGTTGCCT (site CGAGCAGCTAG)” the figure was 0.382; with “CGCGCAGCTTGGGTTCTAACCTGTTGCCT (site CGCGCAGCTAG)”, 0.267. As to “CGCGCAGCTTGGGTTCTAACCTGTTGCCT (site CGGGCAGCTAG)”, the “recombinant barcode read abundance (log10)” value amounted to 0.135. With “CGCGCAGCTTGGGTTCTAACCTGTTGCCT (site CGTGCAGCTAG)” the figure was 0.416.

In the case of “CGCGTAACTTGGGTTCTAACCTGTTGCCT (site CGCGCAACTAG)”, the “recombinant barcode read abundance (log10)” value came to 0.112. For “CGCGTAACTTGGGTTCTAACCTGTTGCCT (site CGCGTAACTAG)”, the “recombinant barcode read abundance (log10)” value was found to be 0.123. With “CGCTCCTCTTGGGTTCTAACCTGTTGCAT (site CGCTCCTCTAT)” the figure was 0. With “CGCTCCTCTTGGGTTCTAACCTGTTGCAT (site GCTCGACCTCA)” the figure was 0.177; with “CGCTCCTCTTGGGTTCTAACCTGTTGCCT (site AGCTCCTCTAG)”, 0.0659.

As to “CGCTCCTCTTGGGTTCTAACCTGTTGCCT (site CGCTCCTCTAG)”, the “recombinant barcode read abundance (log10)” value came out at 0.027. With “CGCTCCTCTTGGGTTCTAACCTGTTGCCT (site GGCTCCTCTAG)” the figure was 0.0456; with “CGCTCCTCTTGGGTTCTAACCTGTTGCCT (site TGCTCCTCTAG)”, 0.103; with “CGCTGACCTTGGGTTCTAACCTGTTGCCT (site CGCTGACCTAG)”, 0.0666. With “CGCTGACCTTGGGTTCTAACCTGTTGCCT (site GCAACCTCTTA)” the figure was 0.11; with “CGCTGATCTTGGGTTCTAACCTGTTGCCT (site AGCTGATCTAG)”, 0.0494. For “CGCTGATCTTGGGTTCTAACCTGTTGCCT (site CGCTGATCTAG)”, the “recombinant barcode read abundance (log10)” value worked out at 0.0169. With “CGCTGATCTTGGGTTCTAACCTGTTGCCT (site GGCTGATCTAG)” the figure was 0.14. With “CGCTGATCTTGGGTTCTAACCTGTTGCCT (site TGCTGATCTAG)” the figure was 0.0802; with “CGCTGCCCTTGGGTTCTAACCTGTTGCTT (site CGCTGACCTAA)”, 0.102.

Take “CGCTGCCCTTGGGTTCTAACCTGTTGCTT (site CGCTGCCCTAA)”: the “recombinant barcode read abundance (log10)” value is 0.113. As to “CGCTGCCCTTGGGTTCTAACCTGTTGCTT (site CGCTGGCCTAA)”, the “recombinant barcode read abundance (log10)” value is 0.0609.

Take “CGCTGCCCTTGGGTTCTAACCTGTTGCTT (site CGCTGTCCTAA)”: the “recombinant barcode read abundance (log10)” value stood at 0.512.

For “CGCTGGACTTGGGTTCTAACCTGTTGCCT (site CGCTAGACTAG)”, the “recombinant barcode read abundance (log10)” value came to 0.0452.

Consider “CGCTGGACTTGGGTTCTAACCTGTTGCCT (site CGCTCGACTAG)”, for which the “recombinant barcode read abundance (log10)” value came to 0.0114.

In the case of “CGCTGGACTTGGGTTCTAACCTGTTGCCT (site CGCTGGACTAG)”, the “recombinant barcode read abundance (log10)” value amounted to 0.158. With “CGCTGGACTTGGGTTCTAACCTGTTGCCT (site CGCTTGACTAG)” the figure was 0.0799; with “CGCTTGTCTTGGGTTCTAACCTGTTGCCT (site CGCTAGTCTAG)”, 0.0576; with “CGCTTGTCTTGGGTTCTAACCTGTTGCCT (site CGCTCGTCTAG)”, 0.00757. As to “CGCTTGTCTTGGGTTCTAACCTGTTGCCT (site CGCTGGTCTAG)”, the “recombinant barcode read abundance (log10)” value was 0.117.

Take “CGCTTGTCTTGGGTTCTAACCTGTTGCCT (site CGCTTGTCTAG)”: the “recombinant barcode read abundance (log10)” value came out at 0.15.

For the sequence “CGGAAGTCTTGGGTTCTAACCTGTTGCCT (site CGGAAGACTAG)”, the “recombinant barcode read abundance (log10)” value was found to be 0.0548. With “CGGAAGTCTTGGGTTCTAACCTGTTGCCT (site CGGAAGCCTAG)”, the “recombinant barcode read abundance (log10)” value came out at 0.452. “CGGAAGTCTTGGGTTCTAACCTGTTGCCT (site CGGAAGGCTAG)”: the “recombinant barcode read abundance (log10)” value was 0.247. With “CGGAAGTCTTGGGTTCTAACCTGTTGCCT (site CGGAAGTCTAG)” the figure was 1.7.

“CGGAATCCTTGGGTTCTAACCTGTTGCAT (site CGGAATCCTAA)”: the “recombinant barcode read abundance (log10)” value is 0.297. For the sequence “CGGAATCCTTGGGTTCTAACCTGTTGCAT (site CGGAATCCTAC)”, the “recombinant barcode read abundance (log10)” value is 0.841. With “CGGAATCCTTGGGTTCTAACCTGTTGCAT (site CGGAATCCTAG)”, the “recombinant barcode read abundance (log10)” value worked out at 0.29. As to “CGGAATCCTTGGGTTCTAACCTGTTGCAT (site CGGAATCCTAT)”, the “recombinant barcode read abundance (log10)” value turned out to be 1.15. With “CGGAATCCTTGGGTTCTAACCTGTTGCTT (site CGGAATCCTAA)” the figure was 0.9; with “CGGAATCCTTGGGTTCTAACCTGTTGCTT (site CGGAATCCTAC)”, 0.0576. Take “CGGAATCCTTGGGTTCTAACCTGTTGCTT (site CGGAATCCTAG)”: the “recombinant barcode read abundance (log10)” value turned out to be 0.316. With “CGGAATCCTTGGGTTCTAACCTGTTGCTT (site CGGAATCCTAT)” the figure was 0.707; with “CGGAGCCCTTGGGTTCTAACCTGTTGCAT (site CGCAGCCCTAT)”, 0.0297; with “CGGAGCCCTTGGGTTCTAACCTGTTGCAT (site CGGAGCCCTAT)”, 1.63. With “CGGAGCTCTTGGGTTCTAACCTGTTGCCT (site CGAAGCTCTAG)” the figure was 0.58; with “CGGAGCTCTTGGGTTCTAACCTGTTGCCT (site CGCAGCTCTAG)”, 0.293. With “CGGAGCTCTTGGGTTCTAACCTGTTGCCT (site CGGAGCTCTAG)” the figure was 1.94; with “CGGAGCTCTTGGGTTCTAACCTGTTGCCT (site CGTAGCTCTAG)”, 0.0387; with “CGGATAGCTTGGGTTCTAACCTGTTGCCT (site CGGATAGCTAG)”, 0.885.

As to “CGGATAGCTTGGGTTCTAACCTGTTGCCT (site CGGATCGCTAG)”, the “recombinant barcode read abundance (log10)” value was found to be 0.0282. With “CGGATAGCTTGGGTTCTAACCTGTTGCCT (site CGGATGGCTAG)” the figure was 0.153; with “CGGATAGCTTGGGTTCTAACCTGTTGCCT (site CGGATTGCTAG)”, 0.553. With “CGGATGGCTTGGGTTCTAACCTGTTGCCT (site CGGATAGCTAG)” the figure was 0.031.

As for “CGGATGGCTTGGGTTCTAACCTGTTGCCT (site CGGATCGCTAG)”, the “recombinant barcode read abundance (log10)” value is 0.0869. With “CGGATGGCTTGGGTTCTAACCTGTTGCCT (site CGGATGGCTAG)” the figure was 0.64.

“CGGATGGCTTGGGTTCTAACCTGTTGCCT (site CGGATTGCTAG)”: the “recombinant barcode read abundance (log10)” value came to 0.0444. With “CGGATTGCTTGGGTTCTAACCTGTTGCCT (site CGGATAGCTAG)” the figure was 0. Turning to “CGGATTGCTTGGGTTCTAACCTGTTGCCT (site CGGATCGCTAG)”, the “recombinant barcode read abundance (log10)” value is 0.0723. With “CGGATTGCTTGGGTTCTAACCTGTTGCCT (site CGGATGGCTAG)” the figure was 0.122; with “CGGATTGCTTGGGTTCTAACCTGTTGCCT (site CGGATTGCTAG)”, 0.533.
